# From PMC3038607 (Journal of the American Chemical Society, 2011)
# Biological target: T1, dimethylarginine dimethylaminohydrolase (DDAH) (Pseudomonas aeruginosa, UniProt Q9I4E3)
# T1 sequence (Q9I4E3 1-254): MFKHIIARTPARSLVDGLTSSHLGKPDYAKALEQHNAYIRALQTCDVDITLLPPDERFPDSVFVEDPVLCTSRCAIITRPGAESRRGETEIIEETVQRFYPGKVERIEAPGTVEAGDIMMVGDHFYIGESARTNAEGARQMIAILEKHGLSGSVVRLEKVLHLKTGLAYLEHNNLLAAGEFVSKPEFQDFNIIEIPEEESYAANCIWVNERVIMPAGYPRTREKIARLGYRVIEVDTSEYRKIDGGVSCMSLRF
# Assay: time-dependent inactivation kinetics
# Assay type: biochemical
# Conditions: read-out: Ki
structure (smiles),measurement,value
"Cc1cc(Br)ccn1 [compound 1, 4-bromo-2-methylpyridine]",KI (inactivation),2600 ± 800 µM
